Assay results from ChEMBL document CHEMBL1201862, “PubChem BioAssay data set” (2004).
Activity calls are given as the source filed them.

Biological target: T1, Calpain-2 catalytic subunit (Sus scrofa, UniProt P43367)
T1 sequence (P43367 whole entry): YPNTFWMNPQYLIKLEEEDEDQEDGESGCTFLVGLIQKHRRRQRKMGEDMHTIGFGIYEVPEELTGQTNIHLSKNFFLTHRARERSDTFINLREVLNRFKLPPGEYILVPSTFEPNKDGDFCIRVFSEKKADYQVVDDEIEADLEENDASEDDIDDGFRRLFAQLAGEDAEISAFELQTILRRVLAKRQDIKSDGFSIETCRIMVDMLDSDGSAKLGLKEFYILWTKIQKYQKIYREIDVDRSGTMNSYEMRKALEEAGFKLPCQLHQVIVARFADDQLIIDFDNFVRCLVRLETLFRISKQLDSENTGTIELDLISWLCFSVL
Experiment: pig calpain II inhibitor potency, dose response, biochemical, fluorogenic peptide substrate (AID 1420)
Format: functional
For `CC(C)=CC1C(C(=O)Nc2ccc(Br)cn2)C1(C)C` (centres undefined), the IC50 was 6.34 µM (not active).

System: not listed separately
Experiment: off-target signal loss in HeLa-CEM21 co-culture – HeLa F-luc CTL cells, cherry-picked, counter-screen for HIV-1 Env fusion inhibitor project, dose response (AID 652040);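 further: potency for signal decrease marking cytotoxic or nonspecific inhibition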
Format: functional, cell-based
With `CC[C@@]12C(=O)N(c3ccccc3)C(=O)N1[C@H](c1ccc(OC)cc1)[C@@H]1C(=O)N(C(C)(C)C)C(=O)[C@@H]12` the AC50 was 2.68 µM (active). In the case of `COc1ccc(C(=O)C(C)N(C(=O)c2ccc(Cl)cc2Cl)N2C(=O)C3C4C=CC(C4)C3C2=O)cc1` (centres undefined), the AC50 is reported as 4.93 µM (active). For `O=C(Cn1ncc2c(=O)oc3ccccc3c21)N1CCC(N2CCCCC2)CC1`, the AC50 was 38.2 µM (active). For `O=C1NCCN(Cc2cccc(Oc3ccccc3)c2)C1CC(=O)N1CCCCC1` (centres undefined), the AC50 was 11.1 µM (active). For `C[C@@]12CC(=O)NC1N(C(=O)c1cccc(C(F)(F)F)c1)C(c1ccccc1O)C2` (some centres undefined), the AC50 was 7.18 µM (active). In the case of `Cc1ccc(C(C(=O)NC2CCCCC2)N(C(=O)c2csnn2)C2CCCC2)o1` (centres undefined), the AC50 is reported as 13.5 µM (active). In the case of `COc1ccc(-c2nnn(CC(=O)N(Cc3cccs3)C(C)C(=O)NC3CCCC3)n2)cc1OC` (centres undefined), the AC50 is reported as 24.8 µM (active).

System: not listed separately
Experiment: cells
Format: functional, cell-based
In the case of `Cc1onc(-c2c(Cl)cccc2Cl)c1C(=O)N=C(N)N1CCCC1`, the EC50 is reported as > 350 µM (not active). For `O=C(c1cc2ccccc2o1)N1CCN(Cc2ccc3c(c2)OCO3)CC1`, the EC50 was > 350 µM (not active). For `CCN(CC)c1ccc(NC(=O)Cn2nnc(-c3cccc(OC)c3OC)n2)c(C)c1`, the EC50 was > 350 µM (not active). With `C=CCNC(=O)/C(=C/c1cn(-c2ccccc2)nc1-c1cccc([N+](=O)[O-])c1)NC(=O)c1ccccc1` the EC50 was > 350 µM (not active). In the case of `CCCc1nc2ccccc2c(=O)n1/N=C/c1ccccc1O`, the EC50 is reported as > 350 µM (not active). With `Cc1cccc(N=C(S)N2CCC(N(C)CC3CCCO3)CC2)c1` (centres undefined) the EC50 was > 350 µM (not active). With `COc1ccc(C/C(C)=N/NS(=O)(=O)c2ccc(Br)cc2)cc1` the EC50 was > 350 µM (not active). In the case of `CN1CCN(Cc2nc3ccccc3c(=O)n2Cc2nc(-c3ccccc3F)cs2)CC1`, the EC50 is reported as 45.4 µM (active).

System: not listed separately
Experiment: inhibitors of HIV Env-driven cell fusion, dose response, cherry-pick (AID 652057)
Format: functional, cell-based
For `CC[C@@]12C(=O)N(c3ccccc3)C(=O)N1[C@H](c1ccc(OC)cc1)[C@@H]1C(=O)N(C(C)(C)C)C(=O)[C@@H]12`, the AC50 was 1.22 µM (active). For `COc1ccc(C(=O)C(C)N(C(=O)c2ccc(Cl)cc2Cl)N2C(=O)C3C4C=CC(C4)C3C2=O)cc1` (centres undefined), the AC50 was 2.94 µM (active). With `O=C1NCCN(Cc2cccc(Oc3ccccc3)c2)C1CC(=O)N1CCCCC1` (centres undefined) the AC50 was 3.76 µM (active). For `C[C@@]12CC(=O)NC1N(C(=O)c1cccc(C(F)(F)F)c1)C(c1ccccc1O)C2` (some centres undefined), the AC50 was 3.74 µM (active). In the case of `Cc1ccc(C(C(=O)NC2CCCCC2)N(C(=O)c2csnn2)C2CCCC2)o1` (centres undefined), the AC50 is reported as 14.1 µM (active). With `COc1ccc(-c2nnn(CC(=O)N(Cc3cccs3)C(C)C(=O)NC3CCCC3)n2)cc1OC` (centres undefined) the AC50 was 5.2 µM (active).

System: not listed separately
Experiment: inhibitors of firefly luciferase expression or activity, dose response, H4 neuroglioma cells, luminescence (AID 1990)
Format: functional, cell-based
With `COc1ccc(C(=O)C(C)N(C(=O)c2ccc(Cl)cc2Cl)N2C(=O)C3C4C=CC(C4)C3C2=O)cc1` (centres undefined) the EC50 was 16.7 µM (active).

Biological target: T2, Leucine aminopeptidase (Plasmodium falciparum 3D7, UniProt Q8IL11)
T2 sequence (Q8IL11 whole entry): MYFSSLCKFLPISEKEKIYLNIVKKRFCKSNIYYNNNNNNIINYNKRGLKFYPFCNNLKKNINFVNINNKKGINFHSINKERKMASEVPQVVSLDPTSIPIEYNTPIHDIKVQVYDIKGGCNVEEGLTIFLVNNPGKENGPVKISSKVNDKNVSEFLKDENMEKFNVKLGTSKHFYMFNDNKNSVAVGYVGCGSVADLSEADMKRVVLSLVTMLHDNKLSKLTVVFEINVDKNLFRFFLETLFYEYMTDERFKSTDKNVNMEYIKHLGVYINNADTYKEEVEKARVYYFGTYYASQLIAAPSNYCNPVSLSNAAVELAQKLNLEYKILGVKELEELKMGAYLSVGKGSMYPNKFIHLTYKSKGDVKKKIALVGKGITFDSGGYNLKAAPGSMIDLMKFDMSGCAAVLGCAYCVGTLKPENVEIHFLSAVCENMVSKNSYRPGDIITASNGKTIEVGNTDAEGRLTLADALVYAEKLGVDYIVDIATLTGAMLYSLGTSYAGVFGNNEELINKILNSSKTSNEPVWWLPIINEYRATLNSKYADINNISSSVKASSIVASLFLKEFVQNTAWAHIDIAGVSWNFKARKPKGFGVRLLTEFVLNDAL
Experiment: P. falciparum M17LAP inhibitors, primary screen, biochemical, fluorogenic H-Leu-NHMec substrate, 1536-well (AID 1619)
Format: functional
For `Nc1[nH]nc2nc(N3CCCC3)nc(-c3ccccc3)c12`, the IC50 was 33.7 µM (active). In the case of `CCC1(C)Cc2sc3c(=O)[nH]c(=S)[nH]c3c2CO1` (centres undefined), the IC50 is reported as 29.3 µM (active). For `CCN(CC)c1ccc(NC(=O)Cn2nnc(-c3cccc(OC)c3OC)n2)c(C)c1`, the IC50 was < 1 µM (active).

System: not listed separately
Experiment: inhibitors of SNCA 5'UTR-driven reporter translation, confirmation, H4 neuroglioma cells, luminescence (AID 1988)
Format: functional, cell-based
In the case of `COc1ccc(C(=O)C(C)N(C(=O)c2ccc(Cl)cc2Cl)N2C(=O)C3C4C=CC(C4)C3C2=O)cc1` (centres undefined), the EC50 is reported as > 120 µM (not active).

System: not listed separately
Experiment: inhibitors of clade B AD8 Env fusion, dose response, cell-based, cherry-pick (AID 652062);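 further: luciferase signal from cell-cell fusion driven by HIV-1 clade B AD8 Env; potency is for inhibitors of fusion seen as a drop in luminescence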
Format: functional
For `CC[C@@]12C(=O)N(c3ccccc3)C(=O)N1[C@H](c1ccc(OC)cc1)[C@@H]1C(=O)N(C(C)(C)C)C(=O)[C@@H]12`, the AC50 was 3.89 µM (active). With `COc1ccc(C(=O)C(C)N(C(=O)c2ccc(Cl)cc2Cl)N2C(=O)C3C4C=CC(C4)C3C2=O)cc1` (centres undefined) the AC50 was 13.1 µM (active). In the case of `O=C(Cn1ncc2c(=O)oc3ccccc3c21)N1CCC(N2CCCCC2)CC1`, the AC50 is reported as 2.31 µM (active). For `O=C1NCCN(Cc2cccc(Oc3ccccc3)c2)C1CC(=O)N1CCCCC1` (centres undefined), the AC50 was 8.77 µM (active). With `C[C@@]12CC(=O)NC1N(C(=O)c1cccc(C(F)(F)F)c1)C(c1ccccc1O)C2` (some centres undefined) the AC50 was 26.7 µM (active). In the case of `Cc1ccc(C(C(=O)NC2CCCCC2)N(C(=O)c2csnn2)C2CCCC2)o1` (centres undefined), the AC50 is reported as 6.08 µM (active). In the case of `COc1ccc(-c2nnn(CC(=O)N(Cc3cccs3)C(C)C(=O)NC3CCCC3)n2)cc1OC` (centres undefined), the AC50 is reported as 10.1 µM (active).

System: not listed separately
Experiment: ZM109 Env clade C HIV-1 fusion inhibitors, dose response, HeLa effector, CEM target cells, luciferase, cherry-pick (AID 652058)
Format: functional, cell-based
With `CC[C@@]12C(=O)N(c3ccccc3)C(=O)N1[C@H](c1ccc(OC)cc1)[C@@H]1C(=O)N(C(C)(C)C)C(=O)[C@@H]12` the AC50 was 1.67 µM (active). In the case of `COc1ccc(C(=O)C(C)N(C(=O)c2ccc(Cl)cc2Cl)N2C(=O)C3C4C=CC(C4)C3C2=O)cc1` (centres undefined), the AC50 is reported as 2.82 µM (active). For `O=C1NCCN(Cc2cccc(Oc3ccccc3)c2)C1CC(=O)N1CCCCC1` (centres undefined), the AC50 was 10.9 µM (active). With `C[C@@]12CC(=O)NC1N(C(=O)c1cccc(C(F)(F)F)c1)C(c1ccccc1O)C2` (some centres undefined) the AC50 was 7.54 µM (active). For `Cc1ccc(C(C(=O)NC2CCCCC2)N(C(=O)c2csnn2)C2CCCC2)o1` (centres undefined), the AC50 was 3.63 µM (active). For `COc1ccc(-c2nnn(CC(=O)N(Cc3cccs3)C(C)C(=O)NC3CCCC3)n2)cc1OC` (centres undefined), the AC50 was 9.35 µM (active).

System: not listed separately
Experiment: THP-1 cell cytotoxicity, dose response, cytotoxicity control for non-replicating M. tuberculosis project (AID 489025)
Format: functional
With `CC(C)=CC1C(C(=O)Nc2ccc(Br)cn2)C1(C)C` (centres undefined) the CC50 was > 40 µM (active).

System: not listed separately
Experiment: cells
Format: functional, cell-based
Remark: another data set of the same source
For `Cc1onc(-c2c(Cl)cccc2Cl)c1C(=O)N=C(N)N1CCCC1`, the EC50 was > 350 µM (not active). For `O=C(c1cc2ccccc2o1)N1CCN(Cc2ccc3c(c2)OCO3)CC1`, the EC50 was > 350 µM (not active). For `CCN(CC)c1ccc(NC(=O)Cn2nnc(-c3cccc(OC)c3OC)n2)c(C)c1`, the EC50 was > 350 µM (not active). In the case of `C=CCNC(=O)/C(=C/c1cn(-c2ccccc2)nc1-c1cccc([N+](=O)[O-])c1)NC(=O)c1ccccc1`, the EC50 is reported as > 350 µM (not active). For `CCCc1nc2ccccc2c(=O)n1/N=C/c1ccccc1O`, the EC50 was > 350 µM (not active). In the case of `Cc1cccc(N=C(S)N2CCC(N(C)CC3CCCO3)CC2)c1` (centres undefined), the EC50 is reported as > 350 µM (not active). With `COc1ccc(C/C(C)=N/NS(=O)(=O)c2ccc(Br)cc2)cc1` the EC50 was > 350 µM (not active). In the case of `CN1CCN(Cc2nc3ccccc3c(=O)n2Cc2nc(-c3ccccc3F)cs2)CC1`, the EC50 is reported as > 350 µM (not active).
